Experimental data taken from patent publication US7541020B2, “Aminoalkyl glucosaminide phosphate compounds and their use as adjuvants and immunoeffectors” (priority 1997, dated 2009).
Like-named read-outs stand apart in the source and are kept apart here.

Tests used:
influenza A/HK/68 [1] = assay type: in vivo, ICR mice
E.G7 (OVA) cells = settings: s.c. 25 μg OVA in AGP preparation, spleen cells 21 days later
influenza A/HK/68 [2] = assay type: in vivo, BALB/c mice
influenza A/HK/68 [3] = tested on: influenza A/HK/68; design: species or system ICR mice; settings: mouse, in vivo
TNF-α = test: Cytokine induction in human whole blood ex vivo culture: TNF-α (ELISA); assay type: cell-based; settings: 4 hr
Method: (§1) AGP compounds were solubilized in 10% EtOH-water and diluted to various concentrations. Fifty μl of each dilution were added to 450 μl of whole human blood. Controls were treated with culture media (RPMI). The reaction mixture was incubated at 37° C. for 4 hr with constant mixing on a rotator. Sterile PBS (1.5 ml) was added to the reaction mixture, the cells were centrifuged and the supernatents removed for cytokine testing. The concentration of TNF-α and IL-1β in each supernatent was determined using immunoassay ELISA kits from R&D Systems.

IL-1β = test: Cytokine induction in human whole blood ex vivo culture: IL-1β (ELISA); assay type: cell-based; settings: 4 hr
Method: as §1

tetanus toxoid = settings: mouse, in vivo, sc
[4] = 25 μg AGP + 1 HAU FI-Flu in 0.2% TEoA, once, bled day 14, Table 11
[5] = 25 μg AGP + 1 HAU FI-Flu in 2% Squalene, SQ once, bled 14 days after vaccination

N-[(R)-3-Heptanoyloxytetradecanoyl]-O-[2-deoxy-4-O-phosphono-2-[(R)-3-heptanoyloxytetradecanoylamino]-3-O-[(R)-3-heptanoyloxytetradecanoyl]-β-D-glucopyranosyl]-L-serine Triethylammonium Salt [B18]
Titer^−1 IgG1 (influenza A/HK/68 [1]; [4]): 800
Titer^−1 IgG2a (influenza A/HK/68 [1]; [4]): 800
Titer^−1 IgG2b (influenza A/HK/68 [1]; [4]): 400
Titer^−1 Total IgG (influenza A/HK/68 [1]; [4]): 800
Percent Survival (influenza A/HK/68 [1]; […], mortality 21 days, Table 11): 20%
% Cytotoxicity (E.G7 (OVA) cells; E:T 12.5:1): 15%
% Cytotoxicity (E.G7 (OVA) cells; E:T 25:1): 20%
% Cytotoxicity (E.G7 (OVA) cells; E:T 50:1): 36%

3-Hydroxy-(S)-2-[(R)-3-decanoyloxytetradecanoylamino]propyl 2-Deoxy-6-O-phosphono-2-[(R)-3-decanoyloxytetradecanoylamino]-3-O-[(R)-3-decanoyloxytetradecanoyl]-β-D-glucopyranoside Triethylammonium Salt [B6]
Anti-influenza Titer^−1 IgG1 (influenza A/HK/68 [2]; mouse, in vivo): 800
Anti-influenza Titer^−1 IgG2a (influenza A/HK/68 [2]; mouse, in vivo): 400
Anti-influenza Titer^−1 IgG2b (influenza A/HK/68 [2]; mouse, in vivo): 1600
Anti-influenza Titer^−1 Total IgG (influenza A/HK/68 [2]; mouse, in vivo): 800
Percent Survival (influenza A/HK/68 [2]; mouse, in vivo): 75%
IgG Titer-1 post 1° (influenza A/HK/68 [3]): 1600
IgG Titer-1 post 2° (influenza A/HK/68 [3]): 102,400
Percent Survival post 1° (influenza A/HK/68 [3]): 80%
Percent Survival post 2° (influenza A/HK/68 [3]): 70%
% Cytotoxicity (E.G7 (OVA) cells; E:T 12.5:1): 37%
% Cytotoxicity (E.G7 (OVA) cells; E:T 25:1): 41%
% Cytotoxicity (E.G7 (OVA) cells; E:T 50:1): 54%

N-[(R)-3-Decanoyloxytetradecanoyl]-O-[2-deoxy-4-O-phosphono-2-[(R)-3-hexanoyloxytetradecanoylamino]-3-O-[(R)-3-hexanoyloxytetradecanoyl]-α-D-glucopyranosyl]-L-serine Triethylammonium Salt [B40]
% Cytotoxicity (E.G7 (OVA) cells; E:T 12.5:1): 8%
% Cytotoxicity (E.G7 (OVA) cells; E:T 25:1): 12%
% Cytotoxicity (E.G7 (OVA) cells; E:T 50:1): 20%

N-[(R)-3-Hexanoyloxytetradecanoyl]-O-[2-deoxy-4-O-phosphono-2-[(R)-3-decanoyloxytetradecanoylamino]-3-O-[(R)-3-decanoyloxytetradecanoyl]-α-D-glucopyranosyl]-L-serine Triethylammonium Salt [B37]
% Cytotoxicity (E.G7 (OVA) cells; E:T 12.5:1): 6%
% Cytotoxicity (E.G7 (OVA) cells; E:T 25:1): 8%
% Cytotoxicity (E.G7 (OVA) cells; E:T 50:1): 12%

CCCCCCCCCCC[C@H](CC(=O)N[C@H]1[C@H](OCCCN(CC(=O)O)C(=O)C[C@@H](CCCCCCCCCCC)OC(=O)CCCCCCCCC)O[C@H](CO)[C@@H](OP(=O)(O)O)[C@@H]1OC(=O)C[C@@H](CCCCCCCCCCC)OC(=O)CCCCCCCCC)OC(=O)CCCCCCCCC.CCN(CC)CC [B28]
Percent Survival (influenza A/HK/68 [2]; 25 μg AGP + 1 HAU FI-Flu in 2% Squalene, SQ once, […], mortality 21 days): 50%
Anti-influenza Titer^−1 IgG1 (influenza A/HK/68 [2]; [5]): 400
Anti-influenza Titer^−1 IgG2a (influenza A/HK/68 [2]; [5]): 400
Anti-influenza Titer^−1 IgG2b (influenza A/HK/68 [2]; [5]): 100
Anti-influenza Titer^−1 Total IgG (influenza A/HK/68 [2]; [5]): 800
TNF-α (TNF-α; Dosage 1000 ng/ml, Table 19): 139 pg/mL
TNF-α (TNF-α; Dosage 5000 ng/ml, Table 19): 197 pg/mL
TNF-α (TNF-α; Dosage 10,000 ng/ml, Table 19): 198 pg/mL
IL-1β (IL-1β; Dosage 1000 ng/ml, Table 19): 8 pg/mL
IL-1β (IL-1β; Dosage 5000 ng/ml, Table 19): 13 pg/mL
IL-1β (IL-1β; Dosage 10,000 ng/ml, Table 19): 13 pg/mL
Anti-tetanus toxoid IgG1 T/C (tetanus toxoid): 92.5
Anti-tetanus toxoid IgG1 Titer (tetanus toxoid): 137,600
Anti-tetanus toxoid IgG2a T/C (tetanus toxoid): 664.7
Anti-tetanus toxoid IgG2a Titer (tetanus toxoid): 9,970
Anti-tetanus toxoid IgG2b T/C (tetanus toxoid): 519.2
Anti-tetanus toxoid IgG2b Titer (tetanus toxoid): 27,520
Anti-tetanus toxoid IgM T/C (tetanus toxoid): 3.7
Anti-tetanus toxoid IgM Titer (tetanus toxoid): 2,080
Anti-tetanus toxoid Total Ig T/C (tetanus toxoid): 228.6
Anti-tetanus toxoid Total Ig Titer (tetanus toxoid): 54,500
% Cytotoxicity (E.G7 (OVA) cells; E:T 12.5:1): 9%
% Cytotoxicity (E.G7 (OVA) cells; E:T 25:1): 15%
% Cytotoxicity (E.G7 (OVA) cells; E:T 50:1): 28%

N-[(R)-3-Decanoyloxytetradecanoyl]-O-[2-deoxy-4-O-phosphono-2-[(R)-3-hexanoyloxytetradecanoylamino]-3-O-[(R)-3-decanoyloxytetradecanoyl]-α-D-glucopyranosyl]-L-serine Triethylammonium Salt [B36]
% Cytotoxicity (E.G7 (OVA) cells; E:T 12.5:1): 4%
% Cytotoxicity (E.G7 (OVA) cells; E:T 25:1): 7%
% Cytotoxicity (E.G7 (OVA) cells; E:T 50:1): 13%

N-[(R)-3-Decanoyloxytetradecanoyl]-O-[2-deoxy-4-O-phosphono-2-[(R)-3-decanoyloxytetradecanoylamino]-3-O-[(R)-3-hexanoyloxytetradecanoyl]-α-D-glucopyranosyl]-L-serine Triethylammonium Salt [B35]
% Cytotoxicity (E.G7 (OVA) cells; E:T 12.5:1): 2%
% Cytotoxicity (E.G7 (OVA) cells; E:T 25:1): 5%
% Cytotoxicity (E.G7 (OVA) cells; E:T 50:1): 9%

N-[(R)-3-Hexanoyloxytetradecanoyl]-O-[2-deoxy-4-O-phosphono-2-[(R)-3-decanoyloxytetradecanoylamino]-3-O-[(R)-3-hexanoyloxytetradecanoyl]-α-D-glucopyranosyl]-L-serine Triethylammonium Salt [B39]
% Cytotoxicity (E.G7 (OVA) cells; E:T 12.5:1): 13%
% Cytotoxicity (E.G7 (OVA) cells; E:T 25:1): 21%
% Cytotoxicity (E.G7 (OVA) cells; E:T 50:1): 33%

N-[(R)-3-Hydroxytetradecanoyl]-O-[2-deoxy-4-O-phosphono-2-[(R)-3-dodecanoyloxytetradecanoylamino]-3-O-[(R)-3-tetradecanoyloxytetradecanoyl]-α-D-glucopyranosyl]-L-serine Triethylammonium Salt [B43]
% Cytotoxicity (E.G7 (OVA) cells; E:T 12.5:1): 6%
% Cytotoxicity (E.G7 (OVA) cells; E:T 25:1): 12%
% Cytotoxicity (E.G7 (OVA) cells; E:T 50:1): 19%

N-[(R)-3-Undecanoyloxytetradecanoyl]-O-[2-deoxy-4-O-phosphono-2-[(R)-3-undecanoyloxytetradecanoylamino]-3-O-[(R)-3-undecanoyloxytetradecanoyl]-β-D-glucopyranosyl]-L-serine Triethylammonium Salt [B13]
Percent Survival (influenza A/HK/68 [1]; mouse, in vivo): 50%
Titer^−1 IgG1 (influenza A/HK/68 [1]; mouse, in vivo): 800
Titer^−1 IgG2a (influenza A/HK/68 [1]; mouse, in vivo): 400
Titer^−1 IgG2b (influenza A/HK/68 [1]; mouse, in vivo): 800
Titer^−1 Total IgG (influenza A/HK/68 [1]; mouse, in vivo): 1600
TNF-α (TNF-α; Dosage 100 ng/ml, Table 17): 302 pg/mL
TNF-α (TNF-α; Dosage 500 ng/ml, Table 17): 411 pg/mL
TNF-α (TNF-α; Dosage 1000 ng/ml, Table 15): 740 pg/mL
TNF-α (TNF-α; Dosage 1000 ng/ml, Table 17): 478 pg/mL
TNF-α (TNF-α; Dosage 5000 ng/ml, Table 15): 716 pg/mL
TNF-α (TNF-α; Dosage 5000 ng/ml, Table 17): 592 pg/mL
TNF-α (TNF-α; Dosage 10,000 ng/ml, Table 15): 775 pg/mL
TNF-α (TNF-α; Dosage 10,000 ng/ml, Table 17): 583 pg/mL
IL-1β (IL-1β; Dosage 100 ng/ml, Table 17): 261 pg/mL
IL-1β (IL-1β; Dosage 500 ng/ml, Table 17): 352 pg/mL
IL-1β (IL-1β; Dosage 1000 ng/ml, Table 15): 177 pg/mL
IL-1β (IL-1β; Dosage 1000 ng/ml, Table 17): 327 pg/mL
IL-1β (IL-1β; Dosage 5000 ng/ml, Table 15): 187 pg/mL
IL-1β (IL-1β; Dosage 5000 ng/ml, Table 17): 390 pg/mL
IL-1β (IL-1β; Dosage 10,000 ng/ml, Table 15): THTC*
IL-1β (IL-1β; Dosage 10,000 ng/ml, Table 17): 282 pg/mL
Anti-tetanus toxoid IgG2a T/C (tetanus toxoid): 220
Anti-tetanus toxoid IgG2a titer (tetanus toxoid): 3740
Anti-tetanus toxoid IgG2b T/C (tetanus toxoid): >208
Anti-tetanus toxoid IgG2b titer (tetanus toxoid): >13,760
Anti-tetanus toxoid IgM T/C (tetanus toxoid): 3.9
Anti-tetanus toxoid IgM titer (tetanus toxoid): 6080
% Cytotoxicity (E.G7 (OVA) cells; E:T 12.5:1): 10%
% Cytotoxicity (E.G7 (OVA) cells; E:T 25:1): 15%
% Cytotoxicity (E.G7 (OVA) cells; E:T 50:1): 28%

N-[(R)-3-Hexanoyloxytetradecanoyl]-O-[2-deoxy-4-O-phosphono-2-[(R)-3-hexanoyloxytetradecanoylamino]-3-O-[(R)-3-decanoyloxytetradecanoyl]-α-D-glucopyranosyl]-L-serine Triethylammonium Salt [B38]
% Cytotoxicity (E.G7 (OVA) cells; E:T 12.5:1): 16%
% Cytotoxicity (E.G7 (OVA) cells; E:T 25:1): 25%
% Cytotoxicity (E.G7 (OVA) cells; E:T 50:1): 38%

3-Hydroxy-(S)-2-[(R)-3-heptanoyloxytetradecanoylamino]propyl 2-Deoxy-4-O-phosphono-2-[(R)-3-heptanoyloxytetradecanoylamino]-3-O-[(R)-3-heptanoyloxytetradecanoyl]-β-D-glucopyranoside Triethylammonium Salt [B8]
Percent Survival (influenza A/HK/68 [1]; mouse, in vivo): 80%
Titer−1 IgG1 (influenza A/HK/68 [1]; mouse, in vivo): 3200
Titer−1 IgG2a (influenza A/HK/68 [1]; mouse, in vivo): 400
Titer−1 IgG2b (influenza A/HK/68 [1]; mouse, in vivo): 1600
Titer−1 Total IgG (influenza A/HK/68 [1]; mouse, in vivo): 6400
% Cytotoxicity (E.G7 (OVA) cells; E:T 12.5:1): 15%
% Cytotoxicity (E.G7 (OVA) cells; E:T 25:1): 20%
% Cytotoxicity (E.G7 (OVA) cells; E:T 50:1): 36%

N-[(R)-3-Nonanoyloxytetradecanoyl]-O-[2-deoxy-4-O-phosphono-2-[(R)-3-nonanoyloxytetradecanoylamino]-3-O-[(R)-3-nonanoyloxytetradecanoyl]-β-D-glucopyranosyl]-L-serine Triethylammonium Salt [B16]
Percent Survival (influenza A/HK/68 [1]; mouse, in vivo): 40%
Titer^−1 IgG1 (influenza A/HK/68 [1]; mouse, in vivo): 1600
Titer^−1 IgG2a (influenza A/HK/68 [1]; mouse, in vivo): 100
Titer^−1 IgG2b (influenza A/HK/68 [1]; mouse, in vivo): 800
Titer^−1 Total IgG (influenza A/HK/68 [1]; mouse, in vivo): 800
TNF-α (TNF-α; Dosage 500 ng/ml, Table 17): 55 pg/mL
TNF-α (TNF-α; Dosage 1000 ng/ml, Table 15): 155 pg/mL
TNF-α (TNF-α; Dosage 1000 ng/ml, Table 17): 72 pg/mL
TNF-α (TNF-α; Dosage 5000 ng/ml, Table 15): 277 pg/mL
TNF-α (TNF-α; Dosage 5000 ng/ml, Table 17): 114 pg/mL
TNF-α (TNF-α; Dosage 10,000 ng/ml, Table 15): 291 pg/mL
TNF-α (TNF-α; Dosage 10,000 ng/ml, Table 17): 121 pg/mL
IL-1β (IL-1β; Dosage 500 ng/ml, Table 17): 17.1 pg/mL
IL-1β (IL-1β; Dosage 1000 ng/ml, Table 15): 39 pg/mL
IL-1β (IL-1β; Dosage 1000 ng/ml, Table 17): 19.5 pg/mL
IL-1β (IL-1β; Dosage 5000 ng/ml, Table 15): 53 pg/mL
IL-1β (IL-1β; Dosage 5000 ng/ml, Table 17): 34.0 pg/mL
IL-1β (IL-1β; Dosage 10,000 ng/ml, Table 15): 55 pg/mL
IL-1β (IL-1β; Dosage 10,000 ng/ml, Table 17): 41.0 pg/mL
Anti-tetanus toxoid IgG2a T/C (tetanus toxoid): 66.8
Anti-tetanus toxoid IgG2a titer (tetanus toxoid): 1135
Anti-tetanus toxoid IgG2b T/C (tetanus toxoid): 104
Anti-tetanus toxoid IgG2b titer (tetanus toxoid): 6880
Anti-tetanus toxoid IgM T/C (tetanus toxoid): 1.6
Anti-tetanus toxoid IgM titer (tetanus toxoid): 2560
% Cytotoxicity (E.G7 (OVA) cells; E:T 12.5:1): 20%
% Cytotoxicity (E.G7 (OVA) cells; E:T 25:1): 29%
% Cytotoxicity (E.G7 (OVA) cells; E:T 50:1): 42%
